Test results published in patent US12427151B2, “Compositions and method of treating cancer” (The Regents of the University of California, priority 2017, dated 2025).
Values after ≈ are worked out from the molar mass of the structure shown.

Columns and labels:
MRSA Sanger252 = experiment: MBC determination; type: cell-based, methicillin-resistant S. aureus; settings: Staphylococcus aureus, 3-log reduction, 24 hour, 37° C., half strength MHB in PBS
Method: (§1) To determine MBC, bacteria were cultured in TSB (Staphylococcus), THB (Streptococcus) or Nutrient broth (P. aeruginosa and E. coli) by reaching exponential phase (OD600=0.5-0.8). […] After incubation, the number of viable bacteria was measured by counting CFU after spreading 10-fold serial dilutions of bacteria on suitable agar plates. MBC was determined as a 3-log reduction (99.9%) of viable bacteria after 24 hour incubation.
(§2) Antimicrobial activity of 6-HAP in vitro. To examine the specificity of 6-HAP for various bacteria, minimal bactericidal concentrations (MBCs) were determined according to dose-dependent killing curves at 24 hrs of incubation in vitro (Table 1). 6-HAP killed or suppressed growth of several major skin pathogens including GAS (NZ131), group B Streptococcus (GBS) (DK23), methicillin-sensitive S. aureus (ATCC35556), methicillin-resistant S. aureus (MRSA) strains (USA300 and Sanger252), Pseudomonas aeruginosa (P. aeruginosa) (ATCC14213) in vitro. […] S. epidermidis (ATCC12228) was also resistant to 6-HAP.

MRSA USA300 = experiment: MBC determination; type: cell-based, methicillin-resistant S. aureus; settings: Staphylococcus aureus, 3-log reduction, 24 hour, 37° C., half strength MHB in PBS
Method: as §1, §2

GAS (NZ131) = experiment: Radial diffusion assay against GAS; type: cell-based, group A streptococcus; settings: fraction purified from MO34 conditioned media
Text: (a) Screening for antimicrobial activity of culture supernatant from 44 strains of S. epidermidis strains isolated from normal human skin by radial diffusion assay against group A streptococcus (GAS). Data represent diameter of growth inhibition zone of conditioned media of each strain. UD=undetectable. (b) Elution profile of the antimicrobial compound purified from culture supernatant of S. epidermidis MO34 by HPLC using a PolyHYDROXYMETHYL. The last step of 5 purification steps is shown. The insert panel represents antimicrobial activity of each fraction on radial diffusion assay against GAS. Green line represents a gradient of H2O in acetonitrile. […] Antimicrobial activity against GAS was determined by radial diffusion assay. […]
S. epidermidis strains from human skin produce non-proteinaceous antibiotic. To screen for commensal skin bacteria producing antimicrobial activity, 44 strains of S. epidermidis from clinical isolates of normal human skin were cultured overnight and the antimicrobial activity produced by each isolate was determined by radial diffusion assay of their conditioned media against GAS (FIG. 1a). […]

[1] = system: Klenow fragment (exo) DNA polymerase; experiment: In vitro DNA polymerization assay; type: biochemical; settings: cell free system, in the presence of 6-HAP
Method: (a) Time course killing of GAS in THB containing 6-HAP (25 μg/mL), mitomycin C (5 μg/mL), or LL-37 (10 μM). At each indicated time point, live GAS in the media was measured by counting CFU on an agar plate. The data represent mean±SE of four individual experiments. (b) Membrane permeability of GAS incubated in THB containing 6-HAP (25 μg/mL), mitomycin C (5 μg/mL) and LL-37 (10 μM) for 1 hr. The bacteria with compromised plasma membranes (Red) can be distinguished from those with intact membranes (Green). (c) BrdU incorporation into nascent DNA of GAS after incubation with 6-HAP (25 μg/mL) or mitomycin C (5 μg/mL) in THB containing BrdU (10 μM) for 30 or 60 min. (d) BrdU incorporation into nascent DNA of S. epidermidis ATCC12228 after incubation with 6-HAP (25 μg/mL) or mitomycin C (5 μg/mL) in THB containing BrdU (10 μM) for 60 min. […] Extension reaction was analyzed on a 20% acrylamide gel by electrophoresis (f). […] GAS survival was measured by counting CFU. […]
In vitro DNA polymerization assay. […] Fluorescence was visualized with Oddyssey Imaging System (LI-COR Biosciences, Lincoln, NE).
We next assessed the effect of 6-HAP on DNA synthesis. […] To directly examine the action of 6-HAP on DNA extension in a cell free system, 25-bp templates and matching 18-bp fluorescence primers were designed to measure DNA extension in vitro by Klenow (exo) DNA polymerase (FIG. 4e).

GAS = experiment: Stability of antimicrobial activity after heat or protease treatment (radial diffusion assay); type: physicochemical, group A streptococcus; settings: activity against GAS
Text: (a) Screening for antimicrobial activity of culture supernatant from 44 strains of S. epidermidis strains isolated from normal human skin by radial diffusion assay against group A streptococcus (GAS). Data represent diameter of growth inhibition zone of conditioned media of each strain. UD=undetectable. (b) Elution profile of the antimicrobial compound purified from culture supernatant of S. epidermidis MO34 by HPLC using a PolyHYDROXYMETHYL. The last step of 5 purification steps is shown. The insert panel represents antimicrobial activity of each fraction on radial diffusion assay against GAS. Green line represents a gradient of H2O in acetonitrile. (c-d) Stability of antimicrobial molecules from S. epidermidis producing the strongest antibiotic activity (MO34) against GAS after heat-treatment (100° C. for indicated time) (c) and incubation with proteinase K (2 mg/mL) or papain (2 mg/mL) at 37° C. for 3 hrs, followed by 5-min incubation at 90° C. to inactivate enzyme (d). Antimicrobial activity against GAS was determined by radial diffusion assay.
To characterize the molecule(s) responsible for antimicrobial activity secreted from the MO34 strain, the antimicrobial molecule was purified from the conditioned media based on activity against GAS. A single peak was isolated in the last chromatography of 5 purification steps (FIG. 1b). […]

ONc1ncnc2nc[nH]c12 [6-HAP, 6-N-hydroxyaminopurine]
MBC (MRSA Sanger252): 0.781 µg/mL (≈ 5.17 µM) | MBC (MRSA USA300): 6.25 µg/mL (≈ 41.4 µM) | zones of inhibition of GAS growth by purified fraction (GAS (NZ131)): strong zones of inhibition | DNA extension, template requiring adenosine (X=T) [1]: lack of extension | DNA extension, template requiring cytosine (X=G) [1]: synthesis of the expected extended DNA product | heat stability of antimicrobial activity (GAS; 100° C. for indicated time): heat-stable | protease sensitivity of antimicrobial activity (GAS; proteinase K (2 mg/mL) or papain (2 mg/mL) at 37° C. for 3 hrs): protease-insensitive
